Here are results for 1 molecule from patent publication US11529318B2, “Devices and methods for local delivery of tacrolimus” (UNIVERSITY OF PITTSBURGH—OF THE COMMONWEALTH SYSTEM OF …, priority 2017, dated 2022).

In series [1] the test system is retinal ganglion cells (RGCs). Description: RGC viability analysis (calcein/propidium iodide live/dead kit). In kind it is cell-based, rat. To be noted: for IC50: primary P3 rat RGCs, 3 days in vitro, 0.1 to 100 μM. As for the experimental part: (§1) Retinal ganglion cell isolation. RGCs were isolated from female and male postnatal day three (P3) Sprague-Dawley rat pups, purified by immunopanning, and cultured in NB-SATO media as previously described (Barres, Silverstein et al. 1988). The RGCs were seeded (5×10^3/cm^2) on cell culture plates coated with poly-D-lysine (70 kDa, 10 μg/mL; Sigma-Aldrich Corp., St. Louis, Mo., USA) and laminin (2 μg/mL, Sigma-Aldrich Corp.), and maintained at 37° C. in 10% CO2 for 3 days.
(§2) RGC viability analysis. To analyze RGC viability a calcein and propidium iodide based live/dead kit was used after 3 DIV per the manufacturer's instructions (Life Technologies, R37601). Briefly, RGC cultures were incubated in the live/dead reagent for 15 minutes at room temperature and five random fields per well were imaged at 20× using standard epi-fluorescence fluorescein and rhodamine filter sets (Zeiss, Axio Observer). Live and dead cells were analyzed using ImageJ (National Institutes of Health, Bethesda, Md., USA). All graphical data represents three independent experimental repeats.

Test in series [2]: as above
In kind it is cell-based, rat. To be noted: both sexes, Sprague-Dawley, rat, primary retinal ganglion cells (RGCs), 3 days in vitro. As for the experimental part: as §1, §2

The nature of series [3]: Tacrolimus concentration in blood, optic nerve ischemia model (Example 1). In kind it is in vivo, Sprague-Dawley rats. To be noted: Sprague-Dawley, rat, whole blood, ip, systemic administration (i.p. 2.2 mg/kg/day). On the procedure: Optic nerve ischemia and PEUU-Tac matrix application. Animals were anesthetized by intraperitoneal injection of 45:10 mg/kg ketamine/xylazine cocktail. Once anaesthetized, the optic nerve was exposed by making a small incision and then creating a nearly bloodless plane through the conjunctiva by blunt dissection with #5 forceps. The surrounding muscle and connective tissue around the optic nerve were then gently separated until the optic nerve was exposed. Using a Yasagril aneurysm clip, the right optic nerve was clamped ˜2 mm behind the globe for 10 seconds (Sarikcioglu, Demir et al. 2007). After removing the clip, ophthalmic artery integrity was confirmed by visualization. For some animals, the optic nerve sheath was fenestrated at the injury site by making an 1-2 mm incision. For animals receiving PEUU-Tac, a 1×5 mm section cut from a 10 mg PEUU-Tac matrix was sutured around the injury site and then secured by suturing to the outer sheath. After each optic nerve procedure, the conjunctiva was sutured and antibiotic ointment (Gentamicin, Bausch & Lomb, Tampa, Fla.) was applied to the eye. […]
Quantification of tacrolimus in blood by HPLC-tandem mass spectrometry. […] Monitored parent to product mass transitions for tacrolimus and ascomycin were 821.63→768.33 and 809→756 m/z, respectively.

Series [4] can be described thus: in vivo. Set-up: species or system Sprague-Dawley rats. To be noted: Sprague-Dawley, rat, 2.2 mg/kg/day, tacrolimus concentration. As for the experimental part: Optic nerve ischemia and PEUU-Tac matrix application. Animals were anesthetized by intraperitoneal injection of 45:10 mg/kg ketamine/xylazine cocktail. Once anaesthetized, the optic nerve was exposed by making a small incision and then creating a nearly bloodless plane through the conjunctiva by blunt dissection with #5 forceps. The surrounding muscle and connective tissue around the optic nerve were then gently separated until the optic nerve was exposed. Using a Yasagril aneurysm clip, the right optic nerve was clamped ˜2 mm behind the globe for 10 seconds (Sarikcioglu, Demir et al. 2007). After removing the clip, ophthalmic artery integrity was confirmed by visualization. For some animals, the optic nerve sheath was fenestrated at the injury site by making an 1-2 mm incision. For animals receiving PEUU-Tac, a 1×5 mm section cut from a 10 mg PEUU-Tac matrix was sutured around the injury site and then secured by suturing to the outer sheath. After each optic nerve procedure, the conjunctiva was sutured and antibiotic ointment (Gentamicin, Bausch & Lomb, Tampa, Fla.) was applied to the eye. In total, twenty-eight animals received acute optic nerve ischemia to the right optic nerve with or without a PEUU-Tac wrap. The experimental groups were as follows: • (1) Five animals received a 1 mm×5 mm section of a 10 mg PEUU-Tac sheet sutured around the nerve. • (2) Five animals received a 1 mm×5 mm section of a 10 mg PEUU-Tac matrix implanted subcutaneously in the lower right quadrant of the abdomen. • (3) Five animals received daily intraperitoneal injections of tacrolimus (2.2 mg/kg/day) for 14 days with the first injection administered immediately after ischemic injury. • (4) Five animals were used as a sham control.
Blood and tissue collection. Twenty-four hours after injury, blood samples were drawn from all four groups via the tail vein. Four of the eight animals treated with PEUU-Tac were sacrificed at 24 hours and sixteen animals were sacrificed at 14 days. Blood, both retinas and both optic nerves were collected from all animals.
Tacrolimus tissue extraction and reconstitution in blood. Tissue (retina and optic nerve) samples were weighted and homogenized with organic solvent (methanol, 100%) using Mini-BeadBeater-1 sonicator for cell disruption and left over night to assure complete tacrolimus extraction. The homogenate was centrifuged at 2100±100 rpm for 10 min. The methanol was transferred to a microcentrifuge tube and evaporated using a sample concentrator. The drug residue was reconstituted with 1 mL of blood. Tacrolimus in the blood was analyzed as described below and tissue drug concentration was expressed in ng/g of tissue weight.
Quantification of tacrolimus in blood by HPLC-tandem mass spectrometry. […]

The conditions of series [5]: reference range; cited from earlier work.

As to `C=CC[C@@H]1/C=C(\C)C[C@H](C)C[C@H](OC)[C@H]2O[C@@](O)(C(=O)C(=O)N3CCCC[C@H]3C(=O)O[C@H](/C(C)=C/[C@@H]3CC[C@@H](O)[C@H](OC)C3)[C@H](C)[C@@H](O)CC1=O)[C@H](C)C[C@@H]2OC` [tacrolimus], the “increase in RGC viability versus EtOH vehicle (70%)” value in series [1] (0.5 μM tacrolimus) is listed as 17.4%. The IC50 in series [1] (Rattus norvegicus, 72 h) is 24.2 µM; in series [1] it was 25 µM. For the same molecule, in series [1] (discussion statement), the “effect of dosage on neuron survival (live/dead study)” value was “no significant effect”. Besides, the viability at 3 days, 0.5 μM in series [2] (0.5 μM tacrolimus) is 87.4%. Moreover, the viability at 3 days, 50 μM in series [2] (50 μM tacrolimus) is 0%. The same molecule displayed a concentration at 24 h in series [3] (24 hour) of 7.05 ± 1.09 ng/mL. The concentration at 14 days was found to be 27.7 ± 3.53 ng/mL in series [3] (14 days); 1700 ng/g in series [4] (left optic nerve); 618 ng/g in series [4] (left retina); 2200 ng/g in series [4] (right optic nerve); 530 ng/g in series [4] (right retina). For the same molecule, in series [5], the “therapeutic trough levels (blood)” value was 5 to 10 ng/mL.

One may read the IC50 as the concentration at which inhibition is half-maximal. For orientation: viability means the share of living cells, or the viability signal relative to a control.
